According to US10266544B2, “Aryl substituted aminomethyl spectinomycin analogs as antibacterial agents” (ST. JUDE CHILDREN'S RESEARCH HOSPITAL, INC., priority 2013, dated 2019):
Structures can show the parent of a compound that is named as a salt.

Assays:
Type in all cases: cell-based
[1] = tested on: Enterococcus faecalis (ATCC 33186); assay: MIC determination, microbroth dilution; conditions: ATCC33186; Enterococcus faecalis (ATCC 33186); read-out: MIC E.f.
[2] = tested on: acinetobacter baumannii (ATCC 19606); assay: MIC determination, microbroth dilution; conditions: ATCC19606
[3] = tested on: Escherichia coli (ATCC 700926); assay: MIC determination, microbroth dilution; conditions: ATCC700926; Escherichia coli (ATCC 700926); read-out: MIC E.c.
[4] = tested on: Haemophilus influenza (ATCC 49247); assay: microbe, parasite or virus in culture; conditions: ATCC49247; Haemophilus influenza; 4 μg per disc; range of at least two experiments; read-out: Zone of inhibition H.i.
[5] = tested on: Neisseria meningitides (ATCC 13077); assay: Disc diffusion assay; conditions: ATCC13077, 4 μg per disc, read-out: Zone of inhibition N.m.
[6] = tested on: Neisseria gonorrhoeae (ATCC 49226); assay: Disc diffusion assay; conditions: ATCC49226, 4 μg per disc, read-out: Zone of inhibition N.g.
[7] = tested on: Bacillus anthracis; assay: microbe, parasite or virus in culture; conditions: read-out: MIC B.a.

## CN[C@@H]1[C@H](O)[C@H](NC)[C@H]2O[C@]3(O)[C@H](O[C@@H]2[C@H]1O)O[C@H](C)C[C@@]3(O)CNCc1ccc(F)cc1 [compound 2, 3′-(R)-3′-[(4-fluoro)benzylaminomethyl)]dihydrospectinomycin Trihydrochloride]
[1]
  MIC: 12.5 to 25 µg/mL
[2]
  MIC: > 200 µg/mL
[3]
  MIC: 25 µg/mL
[4]
  zone of inhibition at 4 µg/disc: 17 to 19 mm
[5]
  zone of inhibition at 4 µg/disc: 19 to 20 mm
[6]
  zone of inhibition at 4 µg/disc: 16 to 19 mm
[7]
  MIC: 25 µg/mL
